Results as given in patent US10526345B2, “Compounds as GPR119 agonists” (Mankind Pharma Ltd., priority 2016, dated 2020).

target: T1, hGPR119 (Homo sapiens, UniProt Q8TDV5); experiment: In vitro cyclic AMP assay (Cisbio dynamic 2 HTRF kit) in CHO-hGPR119 cells; assay type: cell-based; conditions: 1 h, cAMP, compound at 1 μM, 60 min, read-out: Induction (% induction at 1 μM)
T1 construct: expressed in transfected cells; host or cells: CHO
T1 sequence (Q8TDV5 1-335): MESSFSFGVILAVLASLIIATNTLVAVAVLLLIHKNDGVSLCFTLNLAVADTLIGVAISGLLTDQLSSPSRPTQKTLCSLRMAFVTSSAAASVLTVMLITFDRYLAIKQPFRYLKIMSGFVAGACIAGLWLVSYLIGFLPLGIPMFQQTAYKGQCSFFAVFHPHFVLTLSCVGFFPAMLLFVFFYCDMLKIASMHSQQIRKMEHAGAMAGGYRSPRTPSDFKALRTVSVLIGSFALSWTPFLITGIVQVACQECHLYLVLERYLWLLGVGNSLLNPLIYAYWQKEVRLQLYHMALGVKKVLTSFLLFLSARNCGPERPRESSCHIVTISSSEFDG
Procedure: cAMP measurements were done using Cisbio dynamic 2 HTRF kit according to the manufacturer's protocol. Briefly, CHO-hGPR119 cells were plated at a cell density of 5000 cells/well/5 μl into a white small volume 384 well plate. The final concentrations of IBMX and DMSO used were 1 mM and 0.5% respectively. Cells were treated with various concentrations of the test compound for 60 min at room temperature. Cells were lysed by buffer containing Anti-cAMP antibody and d2-cAMP reagents and incubated for 1 hour at room temperature. HTRF was measured at 337 nm excitation and emission wavelengths of 665 nm and 620 nm on a microplate reader (Flurostar, BMG Labtech). Graphpad prism software was utilized for EC50 determinations.

activation at 1 µM	Structure (SMILES)
80%	CC(C)c1noc(N2CCC(C(C)Oc3nc4ccc(-c5ccc(S(C)(=O)=O)nc5)nc4s3)CC2)n1 (stereo not shown) [Compound 1069, 3-isopropyl-5-(4-(1-((5-(6-(methylsulfonyl)pyridin-3-yl)thiazolo[5,4-b]pyridin-2-yl)oxy)ethyl)piperidin-1-yl)-1,2,4-oxadiazole]
17%	CNS(=O)(=O)c1ccc(-c2ccc3nc(N4CCC(c5nc(C(C)C)no5)CC4)sc3n2)cc1 [Compound 1072, 4-(2-(4-(3-isopropyl-1,2,4-oxadiazol-5-yl)piperidin-1-yl)thiazolo[5,4-b]pyridin-5-yl)-N-methylbenzenesulfonamide]
39%	CC(C)c1noc(N2CCC(C(C)Oc3nc4ccc(-c5ccc(NS(C)(=O)=O)cc5)nc4s3)CC2)n1 (stereo not shown) [Compound 1074, N-(4-(2-(1-(1-(3-isopropyl-1,2,4-oxadiazol-5-yl)piperidin-4-yl)ethoxy)thiazolo[5,4-b]pyridin-5-yl)phenyl)methanesulfonamide]
12%	CC(C)c1noc(C2CCN(c3nc4ccc(-c5ccncc5)nc4s3)CC2)n1 [Compound 1077, 3-isopropyl-5-(1-(5-(pyridin-4-yl)thiazolo[5,4-b]pyridin-2-yl)piperidin-4-yl)-1,2,4-oxadiazole]
24%	COCCS(=O)(=O)c1ccc(-c2ccc3nc(N4CCC(c5nc(C(C)C)no5)CC4)sc3n2)cc1 [Compound 1078, 3-isopropyl-5-(1-(5-(4-((2-methoxyethyl)sulfonyl)phenyl)thiazolo[5,4-b]pyridin-2-yl)piperidin-4-yl)-1,2,4-oxadiazole]
82%	CC(C)c1noc(N2CCC(C(C)Oc3nc4ccc(-c5ccnc(F)c5)nc4s3)CC2)n1 (stereo not shown) [Compound 1081, 5-(4-(1-((5-(2-fluoropyridin-4-yl)thiazolo[5,4-b]pyridin-2-yl)oxy)ethyl)piperidin-1-yl)-3-isopropyl-1,2,4-oxadiazole]
2%	CC(C)c1noc(N2CCC(COc3nc4ccc(-c5ccnc(F)c5)nc4s3)CC2)n1 [Compound 1086, 5-(4-(((5-(2-fluoropyridin-4-yl)thiazolo[5,4-b]pyridin-2-yl)oxy)methyl)piperidin-1-yl)-3-isopropyl-1,2,4-oxadiazole]
74%	CCc1ccc(N2CCC(C(C)Oc3nc4ccc(-c5ccc(S(C)(=O)=O)cc5)nc4s3)CC2)nc1 (stereo not shown) [Compound 1087, 2-(1-(1-(5-ethylpyridin-2-yl)piperidine-4-yl)ethoxy)-5-(4-(methylsulfonyl)phenyl)thiazolo[5,4-b]pyridine]
9%	CC(C)c1noc(N2CCC([C@H](C)Oc3nc4ccc(-c5ccncc5)nc4s3)CC2)n1 [Compound 1092, (S)-3-isopropyl-5-(4-(1-((5-(pyridin-4-yl)thiazolo[5,4-b]pyridin-2-yl)oxy)ethyl)piperidin-1-yl)-1,2,4-oxadiazole]
82%	CC(C)c1noc(N2CCC([C@H](C)Oc3nc4ccc(-c5ccnc(F)c5)nc4s3)CC2)n1 [Compound 1093, (S)-5-(4-(1-((5-(2-fluoropyridin-4-yl)thiazolo[5,4-b]pyridin-2-yl)oxy)ethyl)piperidin-1-yl)-3-isopropyl-1,2,4-oxadiazole]

The remaining lines, values behind:

Structure (SMILES)	activation at 1 µM
CC(C)c1noc(N2CCC([C@@H](C)Oc3nc4ccc(-c5ccncc5)nc4s3)CC2)n1 [Compound 1070, (R)-3-isopropyl-5-(4-(1-((5-(pyridin-4-yl)thiazolo[5,4-b]pyridin-2-yl)oxy)ethyl)piperidin-1-yl)-1,2,4-oxadiazole]	83%
COCCNS(=O)(=O)c1ccc(-c2ccc3nc(N4CCC(c5nc(C(C)C)no5)CC4)sc3n2)cc1 [Compound 1073, 4-(2-(4-(3-isopropyl-1,2,4-oxadiazol-5-yl)piperidin-1-yl)thiazolo[5,4-b]pyridin-5-yl)-N-(2-methoxyethyl)benzenesulphonamide]	29%
CC(C)c1noc(N2CCC(C(C)Oc3nc4ccc(-c5ccc(-n6cnnn6)cc5)nc4s3)CC2)n1 (stereo not shown) [Compound 1079, 5-(4-(1-((5-(4-(1H-tetrazol-1-yl)phenyl)thiazolo[5,4-b]pyridin-2-yl)oxy)ethyl)piperidin-1-yl)-3-isopropyl-1,2,4-oxadiazole]	50%
CC(C)c1noc(C2CCN(c3nc4ccc(-c5ccc(S(C)(=O)=O)nc5)nc4s3)CC2)n1 [Compound 1080, 3-isopropyl-5-(1-(5-(6-(methylsulfonyl)pyridin-3-yl)thiazolo[5,4-b]pyridin-2-yl)piperidin-4-yl)-1,2,4-oxadiazole]	40%
CC(C)c1noc(N2CCC(COc3nc4ccc(-c5ccncc5)nc4s3)CC2)n1 [Compound 1083, 3-isopropyl-5-(4-(((5-(pyridin-4-yl)thiazolo[5,4-b]pyridin-2-yl)oxy)methyl)piperidin-1-yl)-1,2,4-oxadiazole]	14%
CC(C)c1noc(N2CCC(COc3nc4ccc(-c5ccncc5F)nc4s3)CC2)n1 [Compound 1084, 5-(4-(((5-(3-fluoropyridin-4-yl)thiazolo[5,4-b]pyridin-2-yl)oxy)methyl)piperidin-1-yl)-3-isopropyl-1,2,4-oxadiazole]	12%
C=Cc1ccc(N2CCC(C(C)Oc3nc4ccc(-c5ccc(S(C)(=O)=O)cc5)nc4s3)CC2)nc1 (stereo not shown) [Compound 1088, 5-(4-(methylsulfonyl)phenyl)-2-(1-(1-(5-vinylpyridin-2-yl)piperidin-4-yl)ethoxy)thiazolo[5,4-b]pyridine]	60%
CCCc1cnc(N2CCC([C@@H](C)Oc3nc4ccc(-c5ccc(S(C)(=O)=O)cc5)nc4s3)CC2)nc1 [Compound 1090, (R)-5-(4-(methylsulfonyl)phenyl)-2-(1-(1-(5-propylpyrimidin-2-yl)piperidin-4-yl)ethoxy)thiazolo[5,4-b]pyridine]	54%
CC(C)c1noc(N2CCC(C(Oc3nc4ccc(-c5ccc(S(C)(=O)=O)cc5)nc4s3)C(F)(F)F)CC2)n1 (stereo not shown) [Compound 1094, 3-isopropyl-5-(4-(2,2,2-trifluoro-1-((5-(4-(methysulfonyl)phenyl)thiazolo[5,4-b]pyridin-2-yl)oxy)ethyl)piperidin-1-yl)-1,2,4-oxadiazole]	24%
CC(C)c1noc(N2CCC([C@H](C)Oc3nc4ccc(-c5ccc(S(=O)(=O)C6CC6)cc5)nc4s3)CC2)n1 [Compound 1095, (S)-5-(4-(1-((5-(4-(cyclopropylsulfonyl)phenyl)thiazolo[5,4-b]pyridin-2-yl)oxy)ethyl)piperidin-1-yl)-3-isopropyl-1,2,4-oxadiazole]	84%

same assay, conditions: cAMP

EC50	Structure (SMILES)
50 to 100 nM	CC(C)c1noc(N2CCC([C@@H](C)Oc3nc4ccc(-c5ccncc5)nc4s3)CC2)n1 [Compound 1070, (R)-3-isopropyl-5-(4-(1-((5-(pyridin-4-yl)thiazolo[5,4-b]pyridin-2-yl)oxy)ethyl)piperidin-1-yl)-1,2,4-oxadiazole]
< 25 nM	CC(C)c1noc(N2CCC([C@H](C)Oc3nc4ccc(-c5ccnc(F)c5)nc4s3)CC2)n1 [Compound 1093, (S)-5-(4-(1-((5-(2-fluoropyridin-4-yl)thiazolo[5,4-b]pyridin-2-yl)oxy)ethyl)piperidin-1-yl)-3-isopropyl-1,2,4-oxadiazole]
50 to 100 nM	CC(C)c1noc(N2CCC([C@H](C)Oc3nc4ccc(-c5ccncc5F)nc4s3)CC2)n1 [Compound 1096, (S)-5-(4-(1-((5-(3-fluoropyridin-4-yl)thiazolo[5,4-b]pyridin-2-yl)oxy)ethyl)piperidin-1-yl)-3-isopropyl-1,2,4-oxadiazole]

same assay, conditions: cAMP, compound at 1 μM, 60 min

Induction (% induction at 1 μM)	Structure (SMILES)
35%	CC(C)c1noc(N2CCC([C@H](C)Oc3nc4ccc(-c5ccncc5F)nc4s3)CC2)n1 [Compound 1076, (S)-5-(4-(1-((5-(3-fluoropyridin-4-yl)thiazolo[5,4-b]pyridin-2-yl)oxy)ethyl)piperidin-1-yl)-3-isopropyl-1,2,4-oxadiazole]
66%	CC(C)c1noc(N2CCC([C@H](C)Oc3nc4ccc(-c5ccncc5F)nc4s3)CC2)n1 [Compound 1096, (S)-5-(4-(1-((5-(3-fluoropyridin-4-yl)thiazolo[5,4-b]pyridin-2-yl)oxy)ethyl)piperidin-1-yl)-3-isopropyl-1,2,4-oxadiazole]
